How the values were obtained:
[1] = Diffusibility: in vivo comparison with an intravasal and an extracellular contrast agent, ligated renal vessels; parameters: species or system Ratte; conditions: i.v. 20 µmol/kg each, relative to Verbindung 2 set as 100 %
Experimental: (§1) Als Versuchstiere dienten drei 250 g schwere, männliche (Schering-SPF-) Ratten. Den Tieren wurden die Nierengefäße abgebunden, um eine renale Eliminierung zu verhindern und bei angenommener vernachlässigbarer faekaler Eliminierung ein Maß für Diffusibilität der erfindungsgemäßen Formulierung aus dem Blut in das umgebende Gewebe zu erhalten. Je Tier wurden 0.5 ml (jeweils 10 mmol/L) der folgenden Kontrastmittel-Lösung intravenös appliziert: Gemisch aus je 1 Teil der Verbindung des Beispiels 1g, im folgenden Verbindung 1 genannt, des intravasalen Kontrastmittels Eu-DTPA-Albumin, im folgenden Verbindung 2 genannt, und des extrazellulären Kontrastmittels Dy-DTPA, im folgenden Verbindung 3 genannt. Über einen Katheter in der Arteria carotis communis wurden Blutproben zu folgenden Zeitpunkten entnommen: 15, 30, 45, 60, 90 sec, 3, 5, 10, 15 min p.i. In den gewonnenen Blutproben wurden jeweils parallel die Konzentrationen an Gadolinium (Gd), Europium (Eu) und Dysprosium (Dy) mittels Atomemissionsspektrometrie (ICP-AES) gemessen. Der im Blutraum verbliebene Anteil des intravasalen Kontrastmittels Verbindung 2 (Eu) wurde als 100 % gesetzt. Der im Blutraum verbliebene Anteil der erfindungsgemäßen Formulierung Verbindung 1 (Gd) und der Verbindung 3 (Dy, extrazelluläre Vergleichssubstanz) konnte durch die unterschiedliche Markierung im gleichen Tier verglichen werden und wurde prozentual ins Verhältnis zur Konzentration der Verbindung 2 gesetzt. Damit liefern diese Daten Angaben über den Verbleib der Verbindungen im Intravasalraum.

[2] = as above; conditions: for Prozentsatz der im Blutraum verbliebenen Dosis: i.v. 20 µmol/kg each, ligated renal vessels, relative to Verbindung 2 set as 100 %
Experimental: as §1

[3] = rat, in vivo, iv, 100 umol/kg
Description: Hierfür wurde nach einmaliger intravenöser Applikation (via einer Caudalvene) der Substanzen (Dosis: ≈ 100 µmol Metall pro kg Körpergewicht) die Substanzkonzentration im Blut (basierend auf dem Gd- bzw. Dy-Gehalt) über einen Zeitraum bis zu 120 Minuten p. i. mittels ICP-AES bestimmt. Die pharmakokinetischen Parameter: Verteilungsvolumen (Vss), Gesamtclearance (CLtot) und Eliminationshalbwertszeit (tb) wurden mit einem speziellen Computerprogramm (TOPFIT 2.0; Thomae, Schering, Gödecke) berechnet, wobei ein Zwei-Kompartment-Distributionsmodell zu Grunde gelegt wurde.
Die Gd- und Dy-Gehalte im Blut wurden mittels ICP-AES bestimmt.
Hierfür wurde nach einmaliger intravenöser Applikation (via einer Caudalvene) der Substanzen (Dosis: ≈ 100 µmol Metall pro kg Körpergewicht) die Substanzkonzentration im Blut (basierend auf dem Metallgehalt) über einen Zeitraum bis zu 120 Minuten p. i. mittels ICP-AES bestimmt. Die pharmakokinetischen Parameter: Verteilungsvolumen (Vss), Gesamtclearance (CLtot) und Eliminationshalbwertszeit (tb) wurden mit einem speziellen Computerprogramm (TOPFIT 2.0; Thomae, Schering, Gödecke) berechnet, wobei ein Zwei-Kompartment-Distributionsmodell zu Grunde gelegt wurde.

[4] = T1 relaxivity in human plasma (Minispec pc 20); type: physicochemical; conditions: for R^1 (T^1-Relaxivity): 0.47 T, 20 MHz, 37 °C, Humanplasma, normalised to one metal atom
[5] = Contrast-enhanced MR angiography (3D FLASH, 2.0 Tesla); type: in vivo, Ratten (Han. Wistar); conditions: directly after single i.v. 50 µmol/kg or 100 µmol/kg; 3 D FLASH 10/2.6/40°
Experimental: Die Untersuchungen zur kontrastmittelgetützten MR Angiographie wurden an einem experimentellen MRT System (SISCO SIS 85, 2.0 Tesla) mit einer 3 D FLASH Technik (10/2.6/40°) durchgeführt. Um die Wirksamkeit von Kontrastmitteln zur Darstellung von Blutgefäßen zu bestimmen, wurden narkotisierte (Rompun® + Ketavet®,1 + 1, v/v; ≈ 1 ml pro kg Körpergewicht, i. m.) Ratten (Han. Wistar; ≈ 200 g Körpergewicht) MR-tomographisch untersucht.
Figur 4 zeigt Abbildungen dieses Experiments. Die MIP (maximal intensity projection)-Bilder wurden berechnet aus den 3 D FLASH Experimenten vor (links) und direkt nach einmaliger i. v. Applikation von 50 µmol / kg (mitte) bzw. 100 µmol /kg (rechts) der Substanz aus Beispiel 1 g.

[6] = Lymph node accumulation in stimulated guinea pigs after s.c. administration (ICP-AES); type: in vivo, Meerschweinchen; conditions: 10 µmol/kg s.c. hind paw, MW ± SD, n=3
Description: Die erfindungsgemäßen Verbindungen erfüllen alle Voraussetzungen, die von Kontrastmitteln in der indirekten NMR-Lymphographie verlangt werden: gute lokale Verträglichkeit, rascher Abtransport vom Injektionsort, rasche und weitestgehend vollständige Ausscheidung aus dem Gesamtorganismus. Ferner zeigen sie eine hohe Anreicherung über mehrere Lymphknotenstationen und erlauben damit relevante diagnostische Aussagen. So konnte am Meerschweinchenmodell eine hohe Anreicherung über mehrere Lymphknotenstationen (popliteal, inguinal, iliakal) nach s.c. Gabe (2,5-10 µmol/kg Körpergewicht, Injektion in Zwischenzehenräume der Hinterpfote) gezeigt werden. In besonders geeigneten Fällen wurden so in der zweiten (inguinal) und dritten (iliakal) Station noch Gadoliniumkonzentrationen von jeweils ≥ 200 bzw. ≥ 300 µmol/l erhalten. Üblicherweise sind mit den erfindungsgemäßen Verbindungen Lymphknotenkonzentrationen bis zu 1000 µmol/l zu erhalten.
Der Gadolinium-Komplex des Beispiels 19 wurde 30 Min./ 90 Min. nach subkutaner Gabe (10 µmol Gesamtgadolinium/kg KG, Hinterpfote s.c.) an stimulierten Meerschweinchen (komplettes Freund-Adjuvant; jeweils 0,1 ml i.m. in den rechten und linken Ober- und Unterschenkel; 2 Wochen vor Gabe der Prüfsubstanz) hinsichtlich ihrer Lymphknotenanreicherung in drei aufeinanderfolgenden Lymphknotenstationen (popliteal, inguinal, iliakal) untersucht. Hierbei wurden die nachfolgend aufgelisteten Ergebnisse (Ermittlung der Gadolinium-Konzentration mittels ICP-AES) erhalten: […]

[7] = Excretion after s.c. administration: metal retention in liver, kidneys, spleen; type: in vivo, Meerschweinchen; conditions: 10 µmol/kg interstitial, MW ± SD, n=2
Description: Nach subkutaner Gabe von 10 µmol Gesamtgadolinium (Beispiel 19) /kg Körpergewicht in die Hinterpfote des Meerschweines wurde 7 Tage nach Applikation die Retention des Metalls in der Leber, in den Nieren sowie in der Milz untersucht.

[8] = Retention of the contrast metal at the injection site (paw); type: in vivo, Meerschweinchen; conditions: 10 µmol/kg interstitial, MW ± SD, n=3
Description: Nach s.c. Gabe von 10 µmol Gesamtgadolinium (Beispiel 19)/kg Körpergewicht in die Meerschweinchenpfote wurde die Retention des Metalls am Injektionsort zu verschiedenen Zeitpunkten untersucht.

Verbindung 2: intravasales Kontrastmittel Eu-DTPA-Albumin
Prozentsatz der im Blutraum verbliebenen Dosis ([1]; 30 sec p.i.): 100% | Prozentsatz der im Blutraum verbliebenen Dosis ([1]; 3 min p.i.): 100% | Prozentsatz der im Blutraum verbliebenen Dosis ([1]; 10 min p.i.): 100%

1,4,7-Tris {1,4,7-tris(N-carboxylatomethyl)-10-(N-1-methyl-3,6-diaza-2,5,8-trioxooctan-1,8-diyl)-1,4,7,10-tetraazacyclododecan, Gd-Komplex}-10-(N-2H,2H,4H,4H,5H,5H-3-oxa-perfluor-tridecanoyl)-1,4,7,10-tetraazacyclododecan [Beispiel 1g]
Prozentsatz der im Blutraum verbliebenen Dosis ([2]; 30 sec p.i.): 84% | Prozentsatz der im Blutraum verbliebenen Dosis ([2]; 3 min p.i.): 62% | Prozentsatz der im Blutraum verbliebenen Dosis ([2]; 10 min p.i.): 44% | Blutkonzentrationen verglichen mit dem extrazellulären Kontrastmittel ([2]; early time points): deutlich höhere Blutkonzentrationen | Diffusion in das Interstitium im Vergleich zu Eu-DTPA-BSA (Verbindung 2) ([2]; first minute p.i.): nur geringfügig schneller | Diffusion in das Interstitium im Vergleich zu Dy-DTPA (Verbindung 3) ([2]; whole duration of the experiment): langsamer | CL tot [3]: 0.41 mL/min/kg | Vss [3]: 0.09 L/kg | R^1 (T^1-Relaxivity) [4]: 19,5 L/mmol * sec | Relaxivity (r1, Plasma) [4]: ≈ 19.5 1*mmol^- ^1*s^-1 | Signalanstieg in den Blutgefäßen (MIP-Bilder) [5]: ausgeprägter Signalanstieg in den Blutgefäßen und eine deutliche Kontrastierung zum Normalgewebe

CCN(CC(=O)N1CCN(C(=O)CNC(=O)CNC(=O)C(C)N2CCN(CC(=O)[O-])CCN(CC(=O)[O-])CCN(CC(=O)[O-])CC2)CCN(C(=O)CNC(=O)CNC(=O)C(C)N2CCN(CC(=O)[O-])CCN(CC(=O)[O-])CCN(CC(=O)[O-])CC2)CCN(C(=O)CNC(=O)CNC(=O)C(C)N2CCN(CC(=O)[O-])CCN(CC(=O)[O-])CCN(CC(=O)[O-])CC2)CC1)S(=O)(=O)C(F)(F)C(F)(F)C(F)(F)C(F)(F)C(F)(F)C(F)(F)C(F)(F)C(F)(F)F.[Gd+3].[Gd+3].[Gd+3] (stereo not shown) [Beispiel 19, 1,4,7-Tris{1,4,7-tris(N-carboxylatomethyl)-10-[N-(4,7-diaza-3,6,9-trioxo)-nonan-2,9-diyl]-1,4,7,10-tetraazacyclododecan, Gd-Komplex}-10-[N-acetyl-(2-amino-N-ethyl-N-perfluor-octylsulfonyl)]-1,4,7,10-tetraazacyclododecan]
Gd-Konzentration, Blut ([6]; 30 min p.i.): 24 ± 3 µmol/L | Gd-Konzentration, Lymphknoten iliakal ([6]; 30 min p.i.): 50 ± 18 µmol/L | Gd-Konzentration, Lymphknoten inguinal profund ([6]; 30 min p.i.): 43 ± 41 µmol/L | Gd-Konzentration, Lymphknoten popliteal ([6]; 30 min p.i.): 345 ± 319 µmol/L | Gd-Konzentration, Urin ([6]; 30 min p.i.): 261 ± 167 µmol/L | Gd-Konzentration, Blut ([6]; 90 min p.i.): 25 ± 4 µmol/L | Gd-Konzentration, Lymphknoten iliakal ([6]; 90 min p.i.): 20 ± 8 µmol/L | Gd-Konzentration, Lymphknoten inguinal profund ([6]; 90 min p.i.): 9 ± 2 µmol/L | Gd-Konzentration, Lymphknoten popliteal ([6]; 90 min p.i.): 75 ± 20 µmol/L | Gd-Konzentration, Urin ([6]; 90 min p.i.): 348 ± 119 µmol/L | Gadolinium-Gehalt in den Organen 7 d p.i., Leber [7]: 0.09 ± 0.09 % Dosis | Gadolinium-Gehalt in den Organen 7 d p.i., Milz [7]: 0.00 ± 0.01 % Dosis | Gadolinium-Gehalt in den Organen 7 d p.i., Nieren [7]: 0.06 ± 0.04 % Dosis | CL tot [3]: 0.94 mL/min/kg | Vss [3]: 0.12 L/kg | Gadolinium-Konzentration an der Injektionsstelle (Pfote) ([8]; 30 min p.i.): 48,4 ± 10,4 % Dosis | Gadolinium-Konzentration an der Injektionsstelle (Pfote) ([8]; 90 min p.i.): 8,0 ± 1,7 % Dosis | Gadolinium-Konzentration an der Injektionsstelle (Pfote) ([8]; 7 d p.i.): 0,7 ± 0,6 % Dosis | R^1 (T^1-Relaxivity) [4]: 21,4 L/mmol * sec | Relaxivity (r1, Plasma) [4]: ≈ 19.5 1*mmol^- ^1*s^-1

— patent publication EP0993306B1, “PERFLUOROALKYLATED OLIGOMER COMPOUNDS, PROCESS FOR PREPARING THE SAME AND THEIR USE IN NMR DIAGNOSIS” (SCHERING AKTIENGESELLSCHAFT, priority 1997, dated 1999)
